# Several values for one entry are separate records, joined by “and”; a condition that tells them apart may be missing. Equal entries are not always repeated. Entries after “also recorded” stand apart in the source; their conditions may differ.
# Key:
# [1] = in vivo application; Fishman et al. 2002; cited from earlier work
# [2] = system: MCF-7 cells; assay: Anchorage-dependent growth assay (viable cell count, Trypan Blue); type: cell-based, human; details: MCF-7
# Procedure: (§1) Anchorage-dependent growth assay: Cells were plated into 6-well plates and grown overnight before treatments. The seeding concentration of MCF-7 cells was 2×10^5/well, which was determined during preliminary experiments as not allowing the cells to reach confluency within 3 days. Cells were treated either with vehicle or ligands, as indicated. Cells were detached by incubation with trypsin (Invitrogen, Carlsbad, Calif.) and counted with a hemacytometer before or after treatment.
# [3] = system: HeLa cells; assay: Anchorage-independent growth (soft agar) assay; type: cell-based, human; details: 100 μM, two weeks
# Procedure: (§2) Anchorage-independent growth (soft agar) assay: Soft agar assay was performed as described (40) with the following modifications. Ligands were added into the bottom and top agar before plating into 6-well plates. Cells were treated with trypsin (Invitrogen, Carlsbad, Calif.) for 5 minutes in a 37° C. incubator and pipetted several times so that most cells were in single cell forms. Cells were counted with a hemacytometer (Hausser Scientific/VWR, So. Plainfield, N.J.), and 10,000 cells were mixed with top agar and plated into each well. After the top agar had solidified, two ml of medium containing the same treatment was added on top of the agar. This covering medium was changed every two days during culture. After two weeks of culture, each well was counted for the number of colonies formed on an Olympus IX70 microscope under 40× optical amplification. A cell colony was defined as any cluster of cells that contain more than 3 cells. The average of counts from 3 random optical fields for each well was taken as the colony number and analyzed. Each treatment was performed in triplicates. The averages and standard deviations shown in the figures were calculated based on triplicate experiments.
# [4] = system: ZR-75 cells; assay: Anchorage-independent growth (soft agar) assay; type: cell-based, human; details: ZR-75 soft agar; 100 μM; two weeks
# Procedure: as §2
# [5] = system: Hs578T cells; assay: Anchorage-independent growth (soft agar) assay; type: cell-based, human; details: 100 μM, two weeks
# Procedure: as §2
# [6] = system: MCF-7 cells; assay: Anchorage-independent growth (soft agar) assay; type: cell-based, human
# Procedure: as §2
# [7] = system: T47D cells; assay: Anchorage-independent growth (soft agar) assay; type: cell-based, human; details: 100 μM, two weeks
# Procedure: as §2
# [8] = system: Hs578T cells; assay: Apoptosis by propidium iodide staining and flow cytometry; type: cell-based, human; details: 100 μM, two days
# Procedure: (§3) Flow Cytometry and Apoptosis Analysis: Cells were detached from tissue culture plates by trypsin treatment. Cells were collected by centrifugation at 1200 g for 5 minutes and washed once with PBS. Staining of cells with propidium iodide and analysis on a flow cytometer (FACScan, Becton Dickinson, Research Triangle Park, N.C.) was performed as described before (42). Data were analyzed with CellQuest software (Becton Dickinson, Research Triangle Park, N.C.). The percentage of cells appearing with a ploidy level smaller than a diploid content was calculated as an estimate of cells undergoing apoptosis.
# [9] = system: CMV promoter; assay: Reporter gene assay pCMV-β-Gal in MCF-7 cells; type: cell-based, human; details: MCF-7 transfected with pCMV-β-Gal; 12 hours
# Procedure: Transfections and Reporter Gene Assay: Transient transfection was performed using FuGene6 (Roche, Indianapolis, Ind.) transfection reagent according to manufacturer's protocol. Circular reporter plasmid pERE-Tk-Luc at 10 μg and 10 μg of pCMV-β-Gal (as a measure of efficiency of trasnfection) were transfected with 50 μl of FuGene6. Cells were split into 6 well plates 12 hours after transfection, and incubated overnight in fresh medium. […] Luciferase and β-galactosidase activities were measured as described before (43, 44).
# [10] = system: ZR-75 cells; assay: Anchorage-dependent growth assay; type: cell-based, human; details: 100 μM, three days
# Procedure: as §1
# [11] = system: Hs578T cells; assay: Anchorage-dependent growth assay; type: cell-based, human; details: 100 μM, three days
# Procedure: as §1
# [12] = system: MCF-7+A3 cells (stably transfected with human A3AR cDNA); assay: Soft agar assay with MCF-7 cells stably expressing A3 adenosine receptor; type: cell-based; details: MCF-7+A3 pool vs MCF-7
# Procedure: as §2, with “experiments. […] Clones of cells grown up were analyzed for their A3AR expression using RT-PCR.” for “experiments.”
# [13] = system: ERα protein in T47D cells; assay: ERα protein level in T47D cells; type: cell-based, human; details: not shown
# Procedure: (§4) Western Blot Analysis: Cells were washed three times in cold 1×PBS, and collected by scraping on ice. Western blot analysis was performed as we described before with the chemiluminescence method (41). Antibodies used in this study were: ERα (NeoMarkers, Ab-15), Cyclin A (Santa Cruz Biotech, H-432), Cyclin B1 (Santa Cruz Biotech, H-433), Cyclin E (Upstate Biotech, HE-12), p27 (Santa Cruz Biotech, F-8). ERα antibody was used at 1:100 dilutions. Cyclin A, cyclin B1 and p27 antibodies were used at 1:500 dilutions. Cyclin E antibody was used at 1:1000 dilutions.
# [14] = system: MCF-7 cells; assay: Cell cycle analysis by flow cytometry; type: cell-based, human
# Procedure: as §3
# [15] = system: cyclin A, cyclin B1, cyclin E, p27; assay: Western blot of cyclins and Cdk inhibitor in MCF-7 cells; type: cell-based, human; details: 100 μM
# Procedure: as §4
compound,measurement,setting,value
"CNC(=O)[C@H]1O[C@@H](n2cnc3c(NCc4cccc(I)c4)ncnc32)[C@H](O)[C@@H]1O [IB-MECA, N^6-(3-iodobenzyl)adenosine-5′-N-methyluronamide]",Effect on blood cell counts,[1],no inhibitory effect
same,"Cell counts after treatment compared to day 0, in words","[2]; 100 μM, three days, trypan blue negative cells",decreased only mildly; also recorded: did not show much change in the number of viable cells
same,Cell Growth,"[2]; 2 days of treatment, compounds at 100 μM, except adenosine (500 μM) and inosine (1 mM), normalized to vehicle control (set to 1), negative = decrease vs count before treatment, average ± SD, three experiments",−0.19 ± 0.06
same,"Colony formation, in words",[3],mild response
same,"Colony formation, in words",[4],dramatic decrease in colony formation
same,"Colony formation, in words",[5],dramatic decrease in colony formation
same,Concentration at which the cell growth inhibitory effect is observed,[6]; MCF-7,higher than 10 μM
same,"Effect on anchorage-independent growth (colony formation), in words","[6]; MCF-7 soft agar, different concentrations, two weeks",dose-dependent inhibition
same,"Colony formation, in words",[7],dramatic decrease in colony formation
same,"Apoptosis, in words",[8],substantial apoptosis
same,CMV promoter activity,[9],did not show any decrease in activity
same,"Cell counts after treatment compared to day 0, in words",[10],decreased only mildly
same,"Cell counts after treatment compared to day 0, in words",[11],affected more severely
same,Dosage response of colony formation compared to normal MCF-7 cells,[12],almost identical dosage response
same,"ERα protein levels, in words",[13],Reduction of ERα protein levels
same,Percentage of cells in G2/M (tetraploid DNA content),"[14]; 100 μM for 2 days, vehicle 24.6%",23.4% and 23%
same,Percentage of cells in S phase,"[14]; 100 μM for 2 days, vehicle 25.2%",12.3% and 12%
same,Percentage of cells in G1 phase (diploid DNA content),"[14]; 100 μM for 2 days, vehicle 50.2%",64.2% and 64%
same,Percentage change of diploid (G0 or G1 phase) population compared to vehicle-treated cells,"[14]; 100 μM, except adenosine (500 μM) and inosine (1 mM), first number in parentheses",28%
same,Percentage change of S phase population compared to vehicle-treated cells,"[14]; 100 μM, except adenosine (500 μM) and inosine (1 mM), second number in parentheses",−51%
same,Percentage change of tetraploid (G2 or M phase) population compared to vehicle-treated cells,"[14]; 100 μM, except adenosine (500 μM) and inosine (1 mM), third number in parentheses",−5%
same,Cyclin A and B1 levels,[15],downregulated
same,Cyclin E levels,[15],elevated
same,cdk inhibitor p27 level,[15],sharp increase

# From patent publication US20060100168A1, “Method of treating cancer using adenosine and its analogs” (The Trustee of Boston University, priority 2002, published 2006)
